Read-outs that look alike come from different tables or passages of the source.
Columns and labels:
XPO1 [1] = molecular target: XPO1 (Homo sapiens, UniProt O14980); test: XPO1 occupancy assay in human PBMCs treated ex vivo; type: cell-based; design: performed ex vivo on PBMCs isolated from pooled healthy donor blood; host or cells: human PBMCs from pooled healthy donor blood, fresh or revived after cryopreservation; conditions: then 1 nM b-LMB 1 hour
Protocol: (§1) Cells were collected, washed with PBS, and lysed with RIPA Buffer (Thermo Scientific) with protease inhibitors [Complete Ultra Tablets, Mini, EDTA-free, Easy pack (Roche), PhosStop Easy (Roche)]. A portion of the lysate was reserved (input) while the rest was added to washed Dynabeads MyOne Streptavidin T1 (Invitrogen) with RIPA Buffer. Samples were incubated overnight with constant rotation at 4°C. Beads were then washed 5 times with modified RIPA (150 mM NaCl, 50 mM Tris, 1% NP-40, 0.1% Na deoxycholate, 1 mM EDTA, pH 7.8). The reserved portion of lysates (input) and the beads were each mixed with Protein Simple buffer (Protein Simple), DTT (Invitrogen), and fluorescent standards (Protein Simple), then boiled at 95°C for 10 min. Eluates and inputs were analyzed using a capillary western method (Peggy Sue; Protein Simple) with the following primary antibodies: XPO1 (Santa Cruz) and β-actin (Santa Cruz). Capillary westerns were performed by SBH Sciences (Natick, MA). Peak areas corresponding to the protein molecular weight of XPO1 and actin were compared for sample inputs, while the ratio of XPO1 peak areas in eluate to input (ratio of bound or free-fraction XPO1) versus compound concentration were used in XLFit model 205 to calculate 50% and 90% occupancy curves.

Kasumi-6 = test: MTT cytotoxicity assay; type: cell-based; conditions: read-out: Selinexor IC50 (μM)
ASPS-KY = test: MTT cytotoxicity assay; type: cell-based; conditions: read-out: Selinexor IC50 (μM)
[2] = humans; clinical PK analysis, no reference given; cited from earlier work
UCH1 = test: MTT cytotoxicity assay; type: cell-based; conditions: read-out: Selinexor IC50 (μM)
XPO1 [3] = molecular target: T1, XPO1 (Mus musculus, UniProt Q6P5F9); test: XPO1 occupancy assay in PBMCs from mice dosed orally with selinexor; type: in vivo
T1 construct: the blood from the mice for each dose (n = 4) was pooled and PBMCs were immediately isolated; from tissue; host or cells: PBMCs from pooled blood of orally dosed mice
Protocol: In order to have enough PBMCs to assay, the blood from the mice for each dose (n = 4) was pooled and PBMCs were immediately isolated. Mouse PBMCs were incubated with 1 nM b-LMB for 1.5 hours ex vivo then collected and prepared for the XPO1 occupancy assay.
Using similar conditions, we sought to determine the duration of XPO1 occupancy by SINE compounds in mice. […] The mice were then terminally bled at 4, 24, 36, 48, 60, 72, and 96 hours post dose (n = 4 mice per dose per time point). Blood for each dose at each time point was pooled and PMBCs were isolated. Mouse PBMCs were incubated with 1 nM b-LMB for 1.5 hours ex vivo before being processed for the XPO1 occupancy assay. Both 3 and 10 mg/kg had time-dependent increases in the ratio of free-fraction XPO1, with 50% XPO1 occupancy being sustained for up to 72 hours post-treatment (Figure 5B).
Human donor blood collected in Vacutainer® EDTA tubes (BD) (BioreclamationIVT) was purchased for peripheral blood mononuclear cells (PBMCs) isolation. […] Mouse whole blood was collected in Vacutainer® EDTA tubes (BD) and pooled from each group for each time point. Human and mouse PBMCs were separated by Ficoll (GE Healthcare) gradient. Human PMBCs were cryogenically preserved in Recovery™ Cell Culture Freezing Medium (Gibco). […] Freshly isolated PBMCs from control or selinexor-treated mice were treated ex vivo with 1 nM b-LMB for 1.5 hours prior to collection and processing for the XPO1 occupancy assay.
as §1

MV-4–11 = test: MTT cytotoxicity assay; type: cell-based; conditions: Homo sapiens, MV4-11, read-out: Selinexor IC50 (μM)
[4] = test system: nuclear export of the XPO1 cargo protein Rev-GFP in stably transfected U2OS cells; test: Rev-GFP assay (nuclear retention of Rev-GFP); type: cell-based; conditions: Homo sapiens
Text: For this assay we utilized biotinylated LMB (b-LMB) as a tool compound to quantify the amount of XPO1 bound by SINE compounds (Figure 1). b-LMB was synthesized by coupling a biotin tag to LMB. We compared the inhibition of nuclear export and the cytotoxicity of b-LMB to that of the unmodified LMB. […] We then quantified the effects of these compounds on cell death in several cancer cell lines using an MTT cytotoxicity assay (Table 2).
For the typical Rev-GFP assay, U2OS cells stably expressing Rev-GFP [42] were cultured in 96 well plates at 7,500 - 15,000 cells/well. […] After fixation cells were stained with DAPI (Invitrogen) for 10 minutes at room temperature. Cells were imaged with a Nikon fluorescent microscope at 10X magnification and intensity of the GFP and nuclear area were measured and recorded. Cells were scored as either GFP nuclear positive or negative. Number of positive cells were divided by total number of cells in order to calculate percentage of cells with nuclear GFP per well.

AML3 = test: MTT cytotoxicity assay; type: cell-based
[5] = single oral dose, 4 hours post-dosing

T1 sequence (Q6P5F9 whole entry): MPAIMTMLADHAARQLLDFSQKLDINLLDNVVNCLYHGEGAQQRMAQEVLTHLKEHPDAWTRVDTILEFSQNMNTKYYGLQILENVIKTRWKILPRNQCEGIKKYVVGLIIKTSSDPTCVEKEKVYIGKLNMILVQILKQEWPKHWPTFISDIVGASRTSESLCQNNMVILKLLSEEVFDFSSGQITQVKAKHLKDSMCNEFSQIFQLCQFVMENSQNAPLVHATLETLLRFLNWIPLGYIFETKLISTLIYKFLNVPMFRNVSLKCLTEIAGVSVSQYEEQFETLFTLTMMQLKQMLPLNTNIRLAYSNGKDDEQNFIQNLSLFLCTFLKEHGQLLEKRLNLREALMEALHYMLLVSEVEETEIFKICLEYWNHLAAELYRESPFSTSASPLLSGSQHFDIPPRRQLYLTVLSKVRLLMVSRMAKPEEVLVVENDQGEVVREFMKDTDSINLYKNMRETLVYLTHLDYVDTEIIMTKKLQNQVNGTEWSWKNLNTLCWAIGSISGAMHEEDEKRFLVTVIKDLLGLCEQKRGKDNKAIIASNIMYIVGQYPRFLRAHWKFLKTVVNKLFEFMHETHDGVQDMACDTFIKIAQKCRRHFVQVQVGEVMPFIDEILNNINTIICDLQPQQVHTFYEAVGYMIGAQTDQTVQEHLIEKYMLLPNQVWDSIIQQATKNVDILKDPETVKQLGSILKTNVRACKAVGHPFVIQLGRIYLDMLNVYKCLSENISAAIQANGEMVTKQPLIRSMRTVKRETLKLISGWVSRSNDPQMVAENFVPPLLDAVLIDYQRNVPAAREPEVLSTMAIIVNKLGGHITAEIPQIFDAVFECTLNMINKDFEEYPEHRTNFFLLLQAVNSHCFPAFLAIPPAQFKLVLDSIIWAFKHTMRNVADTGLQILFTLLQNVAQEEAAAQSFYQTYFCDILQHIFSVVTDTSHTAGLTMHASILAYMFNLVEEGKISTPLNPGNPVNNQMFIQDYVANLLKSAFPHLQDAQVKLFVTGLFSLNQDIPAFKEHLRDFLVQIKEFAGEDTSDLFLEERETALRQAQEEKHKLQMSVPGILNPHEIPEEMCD
Chain of XPO1 (Homo sapiens, UniProt O14980) (O14980 whole entry): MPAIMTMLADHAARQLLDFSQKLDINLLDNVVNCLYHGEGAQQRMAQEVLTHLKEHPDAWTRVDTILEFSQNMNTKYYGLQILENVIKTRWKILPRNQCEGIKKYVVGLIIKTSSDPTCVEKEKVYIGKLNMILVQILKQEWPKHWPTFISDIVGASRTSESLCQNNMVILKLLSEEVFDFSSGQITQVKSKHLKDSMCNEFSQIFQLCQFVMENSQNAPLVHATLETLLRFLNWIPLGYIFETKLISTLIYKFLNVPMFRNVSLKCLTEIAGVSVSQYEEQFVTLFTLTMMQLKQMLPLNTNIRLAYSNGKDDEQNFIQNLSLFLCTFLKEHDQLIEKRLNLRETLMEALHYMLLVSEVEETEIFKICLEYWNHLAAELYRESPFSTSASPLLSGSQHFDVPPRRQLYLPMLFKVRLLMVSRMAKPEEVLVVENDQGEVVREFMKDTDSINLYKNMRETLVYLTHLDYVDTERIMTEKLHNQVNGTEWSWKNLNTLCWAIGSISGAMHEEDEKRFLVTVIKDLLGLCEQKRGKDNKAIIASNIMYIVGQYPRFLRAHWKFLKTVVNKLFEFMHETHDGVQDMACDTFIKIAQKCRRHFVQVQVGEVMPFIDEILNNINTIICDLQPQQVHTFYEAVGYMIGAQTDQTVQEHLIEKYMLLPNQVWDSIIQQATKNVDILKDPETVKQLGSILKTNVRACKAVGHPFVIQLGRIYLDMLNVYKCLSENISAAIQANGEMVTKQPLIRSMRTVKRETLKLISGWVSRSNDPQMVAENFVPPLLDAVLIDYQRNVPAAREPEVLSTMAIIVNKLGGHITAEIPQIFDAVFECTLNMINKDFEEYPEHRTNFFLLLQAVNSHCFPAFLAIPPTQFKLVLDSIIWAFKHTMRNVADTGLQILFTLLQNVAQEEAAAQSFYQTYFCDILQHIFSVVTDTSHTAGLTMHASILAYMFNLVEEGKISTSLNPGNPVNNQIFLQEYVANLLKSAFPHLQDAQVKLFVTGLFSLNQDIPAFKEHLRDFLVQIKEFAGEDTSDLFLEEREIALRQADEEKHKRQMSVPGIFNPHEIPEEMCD

For `O=C(/C=C\n1cnc(-c2cc(C(F)(F)F)cc(C(F)(F)F)c2)n1)NNc1cnccn1` [Selinexor, selinexor], the “90% Occupancy” value (XPO1 [1]; fresh human PBMCs, selinexor 1 hour) was > 0.5 µM, the “90% Occupancy” value (XPO1 [1]; human PBMCs revived from cryopreservation, selinexor 4 hours, washed) was 0.04 µM and the IC50 (Kasumi-6) was 0.53 µM. For the same compound, the IC50 (ASPS-KY) was > 10 µM, the Tmax [2] was ~4 h and the “near complete plasma clearance by (time post-dose)” value [2] was ~24 h. The IC50 (UCH1) was 7 µM, the “time at which full saturation of XPO1 was achieved” value (XPO1 [3]; single oral dose of 3 mg/kg) was 4 to 24 h and the “time for which 50% XPO1 occupancy is sustained post-treatment” value (XPO1 [3]; single oral dose of 3 and 10 mg/kg) was “up to 72 hours”. For the same compound, the “amount of selinexor required to occupy 50% of XPO1” value (XPO1 [3]; [5]) was 1.84 mg/kg, the “amount of selinexor to achieve 90% XPO1 occupancy” value (XPO1 [3]; [5]) was > 10 mg/kg and the IC50 (MV-4–11) was 0.02 µM. For the same compound, the IC50 ([4]; 4 h, read-out: Rev-GFP (nM), U2OS cells stably expressing Rev-GFP, 4 hours treatment) was 40 nM, the IC50 ([4]; 4 h, read-out: RevGFP Assay IC50 (μM), Rev-GFP U2OS, selinexor 4 hours, 4 hours post washout) was 20 nM and the IC50 ([4]; read-out: Rev-GFP IC50 (μM), U2OS Rev-GFP cells) was 40 nM. It also gave an IC50 ([4]; read-out: RevGFP Assay IC50 (μM), Rev-GFP U2OS, selinexor 4 hours, 0 hours post washout) of 10 nM, an IC50 ([4]; read-out: RevGFP Assay IC50 (μM), Rev-GFP U2OS, selinexor 4 hours, 24 hours post washout) of 500 nM and an IC50 ([4]; read-out: RevGFP Assay IC50 (μM), Rev-GFP U2OS, selinexor 4 hours, 48 hours post washout) of 1300 nM. The IC50 ([4]; read-out: RevGFP Assay IC50 (μM), Rev-GFP U2OS, selinexor 4 hours, 72 hours post washout) was 6800 nM, the IC50 ([4]; read-out: RevGFP Assay IC50 (μM), Rev-GFP U2OS, selinexor 4 hours, 96 hours post washout) was 11400 nM and the IC50 (AML3; 72 hours, read-out: IC50) was 0.27 µM. It also gave an IC50 (AML3; read-out: Selinexor IC50 (μM), MTT) of 0.27 µM.
